Like-named read-outs stand apart in the source and are kept apart here. Where a SMILES comes first, the peptide text is derived from it. Bridges are numbered along the chain shown (N, C = ends). [ ]: non-standard residue; d: D form.
How the values were obtained:
[1] = target: human SSTR-1 (Homo sapiens, UniProt P30872); test: Somatostatin receptor binding assay, hSSTR-1
Excerpt: (§1) The human SSTR-1, SSTR-2, SSTR-3, SSTR-4, and SSTR-5 cDNA clones have been described (SSTR-1 and SSTR-2 in Yamada, Y., et al., Proc. Natl. Acad. Sci. USA., 89:251-255 (1992); SSTR-3 in Yamade, et al., Mol. Endocrinol. 6:2136-2142 (1993); and SSTR-4 and SSTR-5 in Yamada, et al., Biochem. Biophys. Res. Commun. 195:844-852 (1993)) and are also available from American Type Culture Collection (ATCC, Rockville, Md.) (ATCC Nos. 79044 (SSTR-1), 79046 (SSTR-2), and 79048 (SSTR-3)). […] Restriction endonucleases are available from New England Biolabs (Beverly, Mass.). This cDNA fragment was inserted into the mammalian expression vector, pCMV (Russell, D., et al., J. Biol. Chem., 264:8222-8229 (1989)), using standard molecular biology techniques (see e.g., Maniatis, T., et al., Molecular Cloning--A Laboratory Manual, Cold Spring Harbor Laboratory, 1982) to produce the expression plasmid, pCMV-human SSTR-1 through pCMV-human SSTR-5. Other mammalian expression vectors include pcDNA1/Amp (Invitrogen, Sandlesy, Calif.). The expression plasmids were introduced into the suitable bacterial host, E. Coli HB101 (Stratagene, La Jolla, Calif.) and plasmid DNAs, for transfection, were prepared on Cesium Chloride gradients.
(§2) CHO-K1 (ovary, Chinese hamster) cells were obtained from ATCC (ATCC No. CCL 61). […]

[2] = target: human SSTR-4 (Homo sapiens, UniProt P31391); test: Somatostatin receptor binding assay, hSSTR-4
Excerpt: as §1, §2

[3] = target: human SSTR-5 (Homo sapiens, UniProt P35346); test: Somatostatin receptor binding assay, hSSTR-5
Excerpt: as §1, §2

[4] = target: human SSTR-3 (Homo sapiens, UniProt P32745); test: Somatostatin receptor binding assay, hSSTR-3
Excerpt: as §1, §2

[5] = target: human SSTR-2 (Homo sapiens, UniProt P30874); test: Somatostatin receptor binding assay, hSSTR-2
Excerpt: as §1, §2

human SSTR-3, sequence (P32745 whole entry): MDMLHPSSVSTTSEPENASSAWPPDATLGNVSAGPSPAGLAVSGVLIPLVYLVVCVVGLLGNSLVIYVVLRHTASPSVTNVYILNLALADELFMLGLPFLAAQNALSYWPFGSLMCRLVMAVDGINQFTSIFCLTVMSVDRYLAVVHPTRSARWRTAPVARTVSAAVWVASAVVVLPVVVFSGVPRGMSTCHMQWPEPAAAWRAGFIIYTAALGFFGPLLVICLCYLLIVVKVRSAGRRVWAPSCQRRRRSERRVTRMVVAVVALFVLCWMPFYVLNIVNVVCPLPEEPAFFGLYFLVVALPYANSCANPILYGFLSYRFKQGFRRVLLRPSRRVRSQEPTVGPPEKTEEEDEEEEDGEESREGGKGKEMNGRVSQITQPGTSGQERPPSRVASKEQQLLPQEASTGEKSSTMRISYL
human SSTR-2, sequence (P30874 whole entry): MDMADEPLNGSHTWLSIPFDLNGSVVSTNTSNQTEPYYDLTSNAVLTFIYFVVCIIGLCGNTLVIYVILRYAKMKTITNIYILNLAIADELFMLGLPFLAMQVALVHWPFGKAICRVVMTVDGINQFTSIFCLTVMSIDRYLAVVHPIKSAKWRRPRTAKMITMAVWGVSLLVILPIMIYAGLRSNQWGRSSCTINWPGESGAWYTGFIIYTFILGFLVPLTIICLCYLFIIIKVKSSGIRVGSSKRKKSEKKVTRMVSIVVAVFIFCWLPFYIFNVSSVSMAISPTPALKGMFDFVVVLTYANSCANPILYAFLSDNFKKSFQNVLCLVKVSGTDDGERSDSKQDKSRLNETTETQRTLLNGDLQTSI
human SSTR-1, sequence (P30872 whole entry, the tested form may be a part): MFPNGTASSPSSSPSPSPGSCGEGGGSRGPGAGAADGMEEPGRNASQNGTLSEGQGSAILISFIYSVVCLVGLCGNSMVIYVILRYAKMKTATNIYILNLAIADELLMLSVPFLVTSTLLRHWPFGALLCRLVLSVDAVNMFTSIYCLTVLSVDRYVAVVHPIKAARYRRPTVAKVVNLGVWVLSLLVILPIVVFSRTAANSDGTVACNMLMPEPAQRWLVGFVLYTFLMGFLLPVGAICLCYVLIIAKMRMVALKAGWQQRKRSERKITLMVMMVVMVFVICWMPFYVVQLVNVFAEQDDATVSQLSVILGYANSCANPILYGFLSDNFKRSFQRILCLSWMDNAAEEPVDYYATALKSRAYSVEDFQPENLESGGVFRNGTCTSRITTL
human SSTR-5, sequence (P35346 whole entry): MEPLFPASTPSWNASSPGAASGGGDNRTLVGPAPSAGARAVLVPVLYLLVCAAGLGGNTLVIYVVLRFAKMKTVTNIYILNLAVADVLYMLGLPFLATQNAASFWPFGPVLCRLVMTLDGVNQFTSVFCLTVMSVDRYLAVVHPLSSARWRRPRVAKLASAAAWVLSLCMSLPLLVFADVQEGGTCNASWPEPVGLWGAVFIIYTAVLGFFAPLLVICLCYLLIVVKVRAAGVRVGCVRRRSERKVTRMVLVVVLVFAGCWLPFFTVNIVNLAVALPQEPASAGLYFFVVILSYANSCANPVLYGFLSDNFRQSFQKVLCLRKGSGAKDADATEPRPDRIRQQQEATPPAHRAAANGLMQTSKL
human SSTR-4, sequence (P31391 whole entry): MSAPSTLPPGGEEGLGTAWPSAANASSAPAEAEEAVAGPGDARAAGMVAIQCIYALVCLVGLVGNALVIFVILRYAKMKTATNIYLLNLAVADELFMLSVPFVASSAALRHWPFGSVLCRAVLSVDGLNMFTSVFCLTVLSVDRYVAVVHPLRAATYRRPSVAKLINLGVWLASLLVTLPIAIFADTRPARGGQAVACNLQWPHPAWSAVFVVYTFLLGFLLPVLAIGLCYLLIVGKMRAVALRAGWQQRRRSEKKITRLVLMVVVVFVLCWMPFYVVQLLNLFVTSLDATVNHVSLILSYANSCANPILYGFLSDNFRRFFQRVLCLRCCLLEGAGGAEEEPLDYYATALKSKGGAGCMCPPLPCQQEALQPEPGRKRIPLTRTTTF

Ki ([3]; read-out: Ki hSSTR-5)	Compound	Ki [1]	Ki [2]	Ki [3]	Ki [4]	Ki [5]
–	C[C@@H](O)[C@H](NC(=O)[C@H](Cc1ccccc1)NC(=O)[C@@H](NC(=O)[C@H](CCCCN)NC(=O)[C@@H](Cc1c[nH]c2ccccc12)NC(=O)[C@H](Cc1ccccc1)NC(=O)[C@H](Cc1ccccc1)NC(=O)[C@H](N)Cc1ccccc1)[C@@H](C)O)C(N)=O [BIM-23052, H-D-Phe-Phe-Phe-D-Trp-Lys-Thr-Phe-Thr-NH2] (H-[dF]FF[dW]KTFT-NH2)	97.6 nM	126 nM	1.23 nM	5.59 nM	5.77 nM
0.376 nM	C[C@@H](O)[C@@H]1NC(=O)[C@H](CCCCN)NC(=O)[C@@H](Cc2c[nH]c3ccccc23)NC(=O)[C@H](Cc2ccccc2)NC(=O)[C@H](Cc2ccccc2)NC(=O)[C@@H](N)CSSC[C@@H](C(N)=O)NC(=O)[C@H](Cc2ccccc2)NC1=O [BM-23268, H-Cys-Phe-Phe-D-Trp-Lys-Thr-Phe-Cys-NH2] (H-CFF[dW]KTFC-NH2; disulfide 1-8)	12.3 nM	–	–	61.6 nM	6.84 nM

— patent US5686418A, “Prolonging survival of transplanted pancreatic cells” (Biomeasure Incorporated, priority 1996, dated 1997)
